The text below walks through data of patent publication US8258098B2, “Antitumoral treatments” (Pharma Mar, S.A., priority 2006, dated 2012).

What all share (assay type): cell-based
One experiment relates to MOLT4 cell line. Briefly: MTS assay with CalcuSyn combination index, leukemia. The conditions noted are these: Homo sapiens, MOLT-4, read-out: IC50 (Molar). The procedure:
(§1) These cell lines were cultured in RPMI1640 medium with 10% FBS and 2 mM L-Glutamine. Each cell line was plated in a 96 well plates at 20,000 cell per well.
(§2) Each serial dilution was paired with 4 different concentrations of Idarubicin.
(§3) The plates were incubated for 3 days at 37° C. and 5% CO2. The plates were read using the Promega MTS assay system with MTS being metabolized by living cells turning into formazan which is […] at 490 nm wavelength. This is an indirect measure of cell viability. These were analyzed using the Softmax Pro program which determines cell viability based percent of control wells. This IC50 data was then transferred into the CalcuSyn program for combination index analysis. CalcuSyn compares IC50 the values of the drugs alone with that of the drugs in combination using an algorithm to determine a combination index.

The next experiment concerns K562 cell line. The description is as above. To be noted: Homo sapiens, K562, read-out: IC50 (Molar). The procedure: as §1, §2, §3
In another experiment the test system is HUT78 cells. The experiment can be described thus: MTS assay Example 2, single agents. The conditions noted are these: Homo sapiens, read-out: IC50 (Molar). The method, then: (§4) The day before plating cells all cultures were fed with fresh, complete growth media. On the harvest (plating) day cells were counted by Trypan Blue exclusion staining method.
(§5) Cells were harvested and seeded in 96 well microtiter plates at 15,000 cells per well in 190 μl of media and incubated for 24 hours to allow the cells to attach before drug addition.
(§6) The cytotoxic effect was measured by the MTS Assay (Tetrazolium), which is a colorimetric method for determining the number of viable cells.
(§7) After 72 hours of incubation with tested agents 25 μl of MTS+PMS solution was added to each microtiter well and incubated for 4 hours at 37° C. Plates were then removed from incubator and placed on plate shaker for 5 minutes (covered with aluminum foil for protection from light). Optical densities were read at 490 nm on spectrophotometer plate reader. Data was analyzed as: • 1. Prism (Graphpad) software program was used to normalized the data to control values (100%=cell growth in the absence of agent (drug); 0%=blank control). • 2. Data normalized were plotted as scatter plots.
(Tetrazolium assays rely on reduction of a dye to a coloured formazan, in cell work by metabolically active cells.)

In the next experiment the test system is H9 cells. Briefly: MTS assay Example 2, single agents. The conditions noted are these: Homo sapiens, read-out: IC50 (Molar). The method, then:
as §4, §5, §6, §7

In a further experiment the test system is HUNS-1 cells. Briefly: MTS assay Example 2, single agents and combinations. The conditions noted are these: HuNS1; HUNS-1, MTS; read-out: IC50 (Molar). The procedure: as §4, §5, §6, §7
(§8) Conversely, antagonism was concluded when inhibition was lower than both maxima. […] Statistical significance was assessed by performing a student's t-test on the inhibition at each dose ratio versus the inhibition at the maximum for each drug.
(§9) As a visual aid, response values were plotted on a scatter plot with dose ratios given on the x-axis and % response values on the y-axis. […] In cases where response values at the two endpoints were approximately equivalent, points lying above or below this predicted line of additivity could be interpreted as representing antagonistic or synergistic drug interaction respectively.

In a further experiment the test system is U266B-1 cells. The description is as above. To be noted: U266B-1, MTS; read-out: IC50 (Molar). The procedure:
as §4, §5, §6, §7, §8, §9

The subject of another experiment is NCI-H929 cells. Described as above. The conditions noted are these: Homo sapiens, read-out: IC50 (Molar). The procedure: as §4, §5, §6, §7, §8, §9
The test system of another experiment is MC116 cells. The description is as above. To be noted: Homo sapiens, read-out: IC50 (Molar). The procedure:
as §4, §5, §6, §7, §8, §9

The test system of another experiment is U937 cells. The experiment is described as above. The conditions noted are these: Homo sapiens, U-937, read-out: IC50 (Molar). The procedure:
as §4, §5, §6, §7, §8, §9

The subject of another experiment is HL-60 cells. The experiment is described as above. The conditions noted are these: Homo sapiens; HL-60, MTS; read-out: IC50 (Molar). The procedure: as §4, §5, §6, §7, §8, §9
Another experiment deals with RPMI 8226 cells. Described as above. To be noted: Homo sapiens; RPMI 8226, MTS; read-out: IC50 (Molar). The method, then: as §4, §5, §6, §7, §8, §9
In the next experiment the test system is MOLT-3 cells. The experiment is described as above. To be noted: Homo sapiens; MOLT-3, MTS; read-out: IC50 (Molar). The procedure: as §4, §5, §6, §7, §8, §9
A further experiment deals with RAMOS cells. The experiment is described as above. The conditions noted are these: Homo sapiens, read-out: IC50 (Molar). The method, then:
as §4, §5, §6, §7, §8, §9

The next experiment deals with K562 cells. The experiment is described as above. To be noted: Homo sapiens, read-out: IC50 (Molar). The method, then:
as §4, §5, §6, §7, §8, §9

For the compound `CC(=O)[C@]1(O)Cc2c(O)c3c(c(O)c2[C@@H](O[C@H]2C[C@H](N)[C@H](O)[C@H](C)O2)C1)C(=O)c1ccccc1C3=O` [Idarubicin], the concentration for half-maximal inhibition (IC50) (in general, the concentration that gives 50% inhibition) in the experiment on MOLT4 cell line is 0.05 nM; in the experiment with K562 cell line it was 63.3 nM.
On to `COc1cc([C@@H]2c3cc4c(cc3[C@@H](O[C@@H]3O[C@@H]5CO[C@@H](C)O[C@H]5[C@H](O)[C@H]3O)[C@H]3COC(=O)[C@H]23)OCO4)cc(OC)c1O` [VP16, etoposide], for which the IC50 in the experiment with HUT78 cells was 1400 nM; with H9 cells, 730 nM; in the experiment with HUNS-1 cells, 3100 nM; in the experiment on U266B-1 cells, 5900 nM; with NCI-H929 cells, 2400 nM; in the experiment with MC116 cells it was 230 nM. For the same compound, the IC50 is 440 nM in the experiment on U937 cells; 2000 nM in the experiment on HL-60 cells; 370 nM with RPMI 8226 cells; 24 nM in the experiment with MOLT-3 cells; 110 nM with RAMOS cells; 7600 nM in the experiment on K562 cells.
